Measured values published in patent US12174198B2, “Methods of characterizing condensate-associated characteristics of compounds and uses thereof” (Dewpoint Therapeutics, Inc., priority 2019, dated 2024).

Columns and labels:
Type in all cases: physicochemical
[1] = tested on: FUS-SNAP condensates versus PGL-3 condensates; experiment: Condensate preference: ratio of FUS-SNAP I-in:I-out to PGL-3 I-in:I-out; settings: average FUS-SNAP I-in:I-out divided by average PGL-3 I-in:I-out
Experimental: (§1) The ratios of the average intensity measured in the target condensates and outside of the target condensates were calculated by dividing I-in by I-out, although dividing I-out by I-in could also have been used. The I-in:I-out ratios determined from the two different days of experiments were then averaged. The average I-in:I-out ratios for FUS-SNAP condensates are shown in FIG. 3 and the average I-in:I-out ratios for PGL-3 condensates are shown in FIG. 4. The standard deviation between the two experiments is represented by the error bars in FIG. 3 and FIG. 4.

FUS-SNAP condensates = molecular target: T1, FUS-SNAP condensates (Homo sapiens, UniProt P35637); experiment: Fluorescence imaging of dye partitioning in FUS-SNAP condensates (I-in, I-out); settings: for Ratio of intensity inside:outside FUS-SNAP Condensates Day 1 / Ratio of intensity inside:outside FUS-SNAP Condensates Day 2 / Ratio of intensity inside:outside FUS-SNAP Condensates Average: I-in:I-out; for Ratio of intensity inside:outside FUS-SNAP Condensates Day 1 / Ratio of intensity inside:outside FUS-SNAP Condensates Day 2 / Ratio of intensity inside:outside FUS-SNAP Condensates Average / Intensity Inside with Dye Average / Intensity Inside with Dye 1 / Intensity Inside with Dye 2 / Intensity Inside with Dye 3 / Intensity Outside with Dye Average / Intensity Outside with Dye 1 / Intensity Outside with Dye 2 / Intensity Outside with Dye 3: 10 μM dye; for Ratio of intensity inside:outside FUS-SNAP Condensates Average: average of two days; for Intensity Inside with Dye Average / Intensity Inside with Dye 1 / Intensity Inside with Dye 2 / Intensity Inside with Dye 3 / Intensity Inside Dye-No Dye: inside FUS-SNAP condensate; for Intensity Inside with Dye Average / Intensity Inside with Dye 1 / Intensity Inside with Dye 2 / Intensity Inside with Dye 3 / Intensity Outside with Dye Average / Intensity Outside with Dye 1 / Intensity Outside with Dye 2 / Intensity Outside with Dye 3: 5 μM protein; for Intensity Inside with Dye Average / Intensity Outside with Dye Average: average of three images; for Intensity Inside with Dye Average / Intensity Inside with Dye 1 / Intensity Inside with Dye 2 / Intensity Inside with Dye 3 / Intensity Inside Dye-No Dye / Intensity Outside with Dye Average / Intensity Outside with Dye 1 / Intensity Outside with Dye 2 / Intensity Outside with Dye 3 / Intensity Outside (Dye-No Dye): one day of experiments; for Intensity Inside with Dye 1 / Intensity Outside with Dye 1: image 1; for Intensity Inside with Dye 2 / Intensity Outside with Dye 2: image 2; for Intensity Inside with Dye 3 / Intensity Outside with Dye 3: image 3; for Intensity Inside Dye-No Dye / Intensity Outside (Dye-No Dye): background corrected; for Intensity Outside with Dye Average / Intensity Outside with Dye 1 / Intensity Outside with Dye 2 / Intensity Outside with Dye 3 / Intensity Outside (Dye-No Dye): outside FUS-SNAP condensate
T1 sequence (P35637 1-526): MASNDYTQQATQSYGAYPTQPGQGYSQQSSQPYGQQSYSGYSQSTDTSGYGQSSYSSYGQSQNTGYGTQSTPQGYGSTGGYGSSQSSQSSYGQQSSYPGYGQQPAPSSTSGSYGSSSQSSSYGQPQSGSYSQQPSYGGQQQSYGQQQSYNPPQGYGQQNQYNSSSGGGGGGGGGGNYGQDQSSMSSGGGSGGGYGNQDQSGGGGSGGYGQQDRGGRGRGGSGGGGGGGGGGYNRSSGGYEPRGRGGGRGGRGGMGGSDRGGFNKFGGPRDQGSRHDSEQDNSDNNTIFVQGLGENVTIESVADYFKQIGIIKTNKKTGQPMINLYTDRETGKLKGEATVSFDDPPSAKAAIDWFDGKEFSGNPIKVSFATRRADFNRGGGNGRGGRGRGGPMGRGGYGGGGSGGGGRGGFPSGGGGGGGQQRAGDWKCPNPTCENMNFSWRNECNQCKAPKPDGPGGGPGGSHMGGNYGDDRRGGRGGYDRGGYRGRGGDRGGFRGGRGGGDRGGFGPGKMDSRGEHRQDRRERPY
Experimental: (§2) All dye-stocks were stored as 1 mM solutions in 100% DMSO. The dyes were dissolved in dilution buffer (DB: 14.7 mM Tris, pH 7.25, 1 mM DTT) to yield 11.765 μM dye in 1.1765 DMSO. 17 μl of dye was distributed in a 384 well non-binding plate (Greiner).
(§3) Either SNAP-tagged FUS protein or tag-free PGL-3 protein was thawed at room temperature for at least 10 min, and the buffer was exchanged to partitioning buffer (PB: 50 mM Tris pH 7.25, 500 mM KCl, 5% Glycerol, and 1 mM DTT). The protein was then diluted to 33.3 μM in PB. 3 μl of protein solution were added to the 384 well plate to initiate phase separation, yielding 20 μl of 5 μM protein and 10 μM dye in 75 mM KCl, 0.75% Glycerol, 20 mM Tris, 1 mM DTT, and 1% DMSO or for no dye control reactions, 20 μl of 5 μM protein in 75 mM KCl, 0.75% Glycerol, 20 mM Tris, 1 mM DTT.
(§4) A spinning disk confocal microscope was used to acquire images of the samples. A 60×oil high-NA objective lens was used to capture the condensate droplets. The laser power was set to 20% and the exposure times were adjusted to the fluorescence emission intensity specific for each dye. Exposure times ranged from 1-1000 ms. Appropriate filter settings were used, matching the excitation and emission spectra of the respective dyes. Three images per well were taken. The background signal of protein droplets in the absence of dye was recorded for all applied imaging conditions.
(§5) Fluorescence intensity was measured inside one exemplary target condensate (Intensity inside, I-in) per image and in a region next to the exemplary target condensate (Intensity outside, I-out) by hand using the image analysis software Fiji. An example depicting the regions measured is shown FIG. 2A. Three I-in and three I-out values were measured in total for each dye in each experiment and were averaged. The measured I-in and I-out values for FUS-SNAP condensates on one day of experiments are shown in Table 2 and Table 3, respectively. The measured I-in and I-out values for PGL-3 condensates on one day of experiments are shown in Table 4 and Table 5, respectively. All values were background corrected, based on the background images (no dye controls) taken with the same microscope conditions.
as §1

PGL-3 condensates = molecular target: T2, PGL-3 condensates (Caenorhabditis elegans, UniProt G5EBV6); experiment: Fluorescence imaging of dye partitioning in PGL-3 condensates (I-in, I-out); settings: for Ratio of intensity inside:outside PGL-3 Condensates Day 1 / Ratio of intensity inside:outside PGL-3 Condensates Day 2 / Ratio of intensity inside:outside PGL-3 Condensates Average: I-in:I-out; for Ratio of intensity inside:outside PGL-3 Condensates Day 1 / Ratio of intensity inside:outside PGL-3 Condensates Day 2 / Ratio of intensity inside:outside PGL-3 Condensates Average / Intensity Inside with Dye Average / Intensity Inside with Dye 1 / Intensity Inside with Dye 2 / Intensity Inside with Dye 3 / Intensity Outside with Dye Average / Intensity Outside with Dye 1 / Intensity Outside with Dye 2 / Intensity Outside with Dye 3: 10 μM dye; for Ratio of intensity inside:outside PGL-3 Condensates Average: average of two days; for Intensity Inside with Dye Average / Intensity Inside with Dye 1 / Intensity Inside with Dye 2 / Intensity Inside with Dye 3 / Intensity Inside Dye-No Dye: inside PGL-3 condensate; for Intensity Inside with Dye Average / Intensity Inside with Dye 1 / Intensity Inside with Dye 2 / Intensity Inside with Dye 3 / Intensity Outside with Dye Average / Intensity Outside with Dye 1 / Intensity Outside with Dye 2 / Intensity Outside with Dye 3: 5 μM protein; for Intensity Inside with Dye Average / Intensity Outside with Dye Average: average of three images; for Intensity Inside with Dye Average / Intensity Inside with Dye 1 / Intensity Inside with Dye 2 / Intensity Inside with Dye 3 / Intensity Inside Dye-No Dye / Intensity Outside with Dye Average / Intensity Outside with Dye 1 / Intensity Outside with Dye 2 / Intensity Outside with Dye 3 / Intensity Outside (Dye-No Dye): one day of experiments; for Intensity Inside with Dye 1 / Intensity Outside with Dye 1: image 1; for Intensity Inside with Dye 2 / Intensity Outside with Dye 2: image 2; for Intensity Inside with Dye 3 / Intensity Outside with Dye 3: image 3; for Intensity Inside Dye-No Dye / Intensity Outside (Dye-No Dye): background corrected; for Intensity Outside with Dye Average / Intensity Outside with Dye 1 / Intensity Outside with Dye 2 / Intensity Outside with Dye 3 / Intensity Outside (Dye-No Dye): outside PGL-3 condensate
T2 sequence (G5EBV6 1-693): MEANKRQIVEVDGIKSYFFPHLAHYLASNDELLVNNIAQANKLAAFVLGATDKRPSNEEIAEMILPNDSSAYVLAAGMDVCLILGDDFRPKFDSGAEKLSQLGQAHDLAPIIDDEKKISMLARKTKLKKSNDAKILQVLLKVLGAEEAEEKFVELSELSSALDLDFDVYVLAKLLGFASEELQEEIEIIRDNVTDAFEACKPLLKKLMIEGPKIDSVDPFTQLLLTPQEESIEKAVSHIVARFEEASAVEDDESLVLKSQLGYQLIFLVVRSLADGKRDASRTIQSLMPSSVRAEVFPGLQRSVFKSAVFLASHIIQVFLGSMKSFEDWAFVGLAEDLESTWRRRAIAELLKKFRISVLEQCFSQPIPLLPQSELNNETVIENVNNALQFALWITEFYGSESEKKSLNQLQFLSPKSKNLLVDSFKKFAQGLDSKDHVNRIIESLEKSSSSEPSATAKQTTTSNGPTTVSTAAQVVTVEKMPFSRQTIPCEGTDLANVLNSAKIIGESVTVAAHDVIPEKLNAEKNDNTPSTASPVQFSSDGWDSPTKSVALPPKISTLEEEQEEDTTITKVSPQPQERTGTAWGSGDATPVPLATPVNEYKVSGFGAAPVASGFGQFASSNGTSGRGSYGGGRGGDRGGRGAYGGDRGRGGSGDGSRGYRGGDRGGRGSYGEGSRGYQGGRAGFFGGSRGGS
Experimental: as §2, §3, §4, §5, §1

| Structure (SMILES) | Ratio of FUS-SNAP:PGL-3 [1] | Ratio of intensity inside:outside FUS-SNAP Condensates Day 1 (FUS-SNAP condensates) | Ratio of intensity inside:outside FUS-SNAP Condensates Day 2 (FUS-SNAP condensates) | Ratio of intensity inside:outside FUS-SNAP Condensates Average (FUS-SNAP condensates) | Intensity Inside with Dye Average (FUS-SNAP condensates) | Intensity Inside with Dye 1 (FUS-SNAP condensates) | Intensity Inside with Dye 2 (FUS-SNAP condensates) | Intensity Inside with Dye 3 (FUS-SNAP condensates) | Intensity Inside Dye-No Dye (FUS-SNAP condensates) | Intensity Outside with Dye Average (FUS-SNAP condensates) | Intensity Outside with Dye 1 (FUS-SNAP condensates) | Intensity Outside with Dye 2 (FUS-SNAP condensates) | Intensity Outside with Dye 3 (FUS-SNAP condensates) | Intensity Outside (Dye-No Dye) (FUS-SNAP condensates) | Ratio of intensity inside:outside PGL-3 Condensates Day 1 (PGL-3 condensates) | Ratio of intensity inside:outside PGL-3 Condensates Day 2 (PGL-3 condensates) | Ratio of intensity inside:outside PGL-3 Condensates Average (PGL-3 condensates) | Intensity Inside with Dye Average (PGL-3 condensates) | Intensity Inside with Dye 1 (PGL-3 condensates) | Intensity Inside with Dye 2 (PGL-3 condensates) | other results |
| --- | --- | --- | --- | --- | --- | --- | --- | --- | --- | --- | --- | --- | --- | --- | --- | --- | --- | --- | --- | --- | --- |
| O=c1cc(C(F)(F)F)c2ccc(O)cc2o1 [Dye 2, 7-Hydroxy-4-(trifluoromethyl)-coumarin] | 1.2 | 1.4 | 1.2 | 1.3 | 280.9 | 278.2 | 278.1 | 286.5 | 160.9 | 232.0 | 235.7 | 228.5 | 232.0 | 112.0 | 1.0 | 1.1 | 1.1 | 269.8 | 273.9 | 267.0 | Intensity Inside with Dye 3 (PGL-3 condensates): 268.3; Intensity Inside Dye-No Dye (PGL-3 condensates): 149.0; Intensity Outside with Dye Average (PGL-3 condensates): 262.4; Intensity Outside with Dye 1 (PGL-3 condensates): 263.1; Intensity Outside with Dye 2 (PGL-3 condensates): 258.0; Intensity Outside with Dye 3 (PGL-3 condensates): 266.0; Intensity Outside (Dye-No Dye) (PGL-3 condensates): 141.9 |
| O=C(O)c1cc2cc3c4c(c2oc1=O)CCCN4CCC3 [Dye 3, Coumarin 343] | 2.0 | 2.5 | 2.8 | 2.7 | 3572.7 | 3451.6 | 3462.2 | 3804.4 | 3452.8 | 1498.4 | 1486.5 | 1529.0 | 1479.6 | 1378.3 | 1.5 | 1.1 | 1.3 | 2098.0 | 2228.4 | 2006.3 | Intensity Inside with Dye 3 (PGL-3 condensates): 2059.4; Intensity Inside Dye-No Dye (PGL-3 condensates): 1977.3; Intensity Outside with Dye Average (PGL-3 condensates): 1447.1; Intensity Outside with Dye 1 (PGL-3 condensates): 1472.5; Intensity Outside with Dye 2 (PGL-3 condensates): 1407.6; Intensity Outside with Dye 3 (PGL-3 condensates): 1461.1; Intensity Outside (Dye-No Dye) (PGL-3 condensates): 1326.6 |
| CC(=O)c1cc2cc3c4c(c2oc1=O)CCCN4CCC3 [Dye 4, Coumarin 334] | 1.9 | 2.1 | 3.0 | 2.6 | 10851.1 | 10755.9 | 10738.6 | 11058.9 | 10353.6 | 5030.3 | 4894.0 | 5118.6 | 5078.2 | 4890.2 | 1.4 | 1.3 | 1.3 | 204.8 | 212.2 | 205.0 | Intensity Inside with Dye 3 (PGL-3 condensates): 197.2; Intensity Inside Dye-No Dye (PGL-3 condensates): 84.0; Intensity Outside with Dye Average (PGL-3 condensates): 179.0; Intensity Outside with Dye 1 (PGL-3 condensates): 178.0; Intensity Outside with Dye 2 (PGL-3 condensates): 179.6; Intensity Outside with Dye 3 (PGL-3 condensates): 179.5; Intensity Outside (Dye-No Dye) (PGL-3 condensates): 58.6 |
